ChEMBL document CHEMBL2380247, “Synthesis and biological evaluation of novel aliphatic amido-quaternary ammonium salts for anticancer chemotherapy: part II” (2013)
The source made the active and inactive calls. No cut-off for these calls is given here.

Tests used:
NCI-H23 [1] = test: Antiproliferative activity against human NCI-H23 cells at 3 uM by SRB assay; type: functional
HCT-15 [2] = test: Antiproliferative activity against human HCT15 cells by SRB assay; type: functional
NCI-H23 [3] = test: Antiproliferative activity against human NCI-H23 cells at 0.3 uM by SRB assay; type: functional
[4] = molecular target: Rho-related GTP-binding protein RhoB (Homo sapiens) (UniProt P62745); test: Inhibition of RhoB transactivation in human HeLa cells by luciferase reporter assay; type: cell-based
NUGC-3 [5] = test: Antiproliferative activity against human NUGC3 cells by SRB assay; type: functional
HCT-15 [6] = test: Antiproliferative activity against human HCT15 cells at 3 uM by SRB assay; type: functional
PC-3 [7] = test: Antiproliferative activity against human PC3 cells at 1 uM by SRB assay; type: functional
[8] = molecular target: Rho-related GTP-binding protein RhoB (Homo sapiens) (UniProt P62745); test: Transactivation of RhoB in human HeLa cells by luciferase reporter assay; type: cell-based
PC-3 [9] = test: Antiproliferative activity against human PC3 cells at 0.1 uM by SRB assay; type: functional
MDA-MB-231 [10] = test: Antiproliferative activity against human MDA-MB-231 cells at 3 uM by SRB assay; type: functional
ACHN [11] = test: Antiproliferative activity against human ACHN cells by SRB assay; type: functional
MDA-MB-231 [12] = test: Antiproliferative activity against human MDA-MB-231 cells by SRB assay; type: functional
NUGC-3 [13] = test: Antiproliferative activity against human NUGC3 cells at 0.3 uM by SRB assay; type: functional
MDA-MB-231 [14] = test: Antiproliferative activity against human MDA-MB-231 cells at 1 uM by SRB assay; type: functional
PC-3 [15] = test: Antiproliferative activity against human PC3 cells at 10 uM by SRB assay; type: functional
PC-3 [16] = test: Antiproliferative activity against human PC3 cells by SRB assay; type: functional
HCT-15 [17] = test: Antiproliferative activity against human HCT15 cells at 1 uM by SRB assay; type: functional
NUGC-3 [18] = test: Antiproliferative activity against human NUGC3 cells at 1 uM by SRB assay; type: functional
PC-3 [19] = test: Antiproliferative activity against human PC3 cells at 3 uM by SRB assay; type: functional
MDA-MB-231 [20] = test: Antiproliferative activity against human MDA-MB-231 cells at 0.3 uM by SRB assay; type: functional
ACHN [21] = test: Antiproliferative activity against human ACHN cells at 1 uM by SRB assay; type: functional
PC-3 [22] = test: Antiproliferative activity against human PC3 cells at 0.3 uM by SRB assay; type: functional
NUGC-3 [23] = test: Antiproliferative activity against human NUGC3 cells at 3 uM by SRB assay; type: functional
ACHN [24] = test: Antiproliferative activity against human ACHN cells at 3 uM by SRB assay; type: functional
NCI-H23 [25] = test: Antiproliferative activity against human NCI-H23 cells at 10 uM by SRB assay; type: functional
ACHN [26] = test: Antiproliferative activity against human ACHN cells at 0.3 uM by SRB assay; type: functional
HCT-15 [27] = test: Antiproliferative activity against human HCT15 cells at 0.1 uM by SRB assay; type: functional
HCT-15 [28] = test: Antiproliferative activity against human HCT15 cells at 0.3 uM by SRB assay; type: functional
MDA-MB-231 [29] = test: Antiproliferative activity against human MDA-MB-231 cells at 10 uM by SRB assay; type: functional
NCI-H23 [30] = test: Antiproliferative activity against human NCI-H23 cells at 1 uM by SRB assay; type: functional
NCI-H23 [31] = test: Antiproliferative activity against human NCI-H23 cells by SRB assay; type: functional
ACHN [32] = test: Antiproliferative activity against human ACHN cells at 0.1 uM by SRB assay; type: functional
NUGC-3 [33] = test: Antiproliferative activity against human NUGC3 cells at 10 uM by SRB assay; type: functional
HCT-15 [34] = test: Antiproliferative activity against human HCT15 cells at 10 uM by SRB assay; type: functional
NCI-H23 [35] = test: Antiproliferative activity against human NCI-H23 cells at 0.1 uM by SRB assay; type: functional
ACHN [36] = test: Antiproliferative activity against human ACHN cells at 10 uM by SRB assay; type: functional
MDA-MB-231 [37] = test: Antiproliferative activity against human MDA-MB-231 cells at 0.1 uM by SRB assay; type: functional
NUGC-3 [38] = test: Antiproliferative activity against human NUGC3 cells at 0.1 uM by SRB assay; type: functional

Chain of Rho-related GTP-binding protein RhoB (Homo sapiens) (P62745 whole entry): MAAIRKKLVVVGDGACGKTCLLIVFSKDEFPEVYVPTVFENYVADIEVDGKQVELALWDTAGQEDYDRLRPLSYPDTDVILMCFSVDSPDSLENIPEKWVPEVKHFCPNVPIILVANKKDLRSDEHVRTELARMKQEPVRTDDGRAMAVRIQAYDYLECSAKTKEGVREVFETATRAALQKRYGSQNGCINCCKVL

| Structure (SMILES) | growth, % of control at 3 µM (NCI-H23 [1]) | GI50 (HCT-15 [2]) | growth, % of control at 0.3 µM (NCI-H23 [3]) | GI50 (NUGC-3 [5]) | growth, % of control at 3 µM (HCT-15 [6]) | growth, % of control at 1 µM (PC-3 [7]) | Activity [8] | growth, % of control at 0.1 µM (PC-3 [9]) | growth, % of control at 3 µM (MDA-MB-231 [10]) | GI50 (ACHN [11]) | GI50 (MDA-MB-231 [12]) | growth, % of control at 0.3 µM (NUGC-3 [13]) | growth, % of control at 1 µM (MDA-MB-231 [14]) | growth, % of control at 10 µM (PC-3 [15]) | GI50 (PC-3 [16]) | growth, % of control at 1 µM (HCT-15 [17]) | growth, % of control at 1 µM (NUGC-3 [18]) | growth, % of control at 3 µM (PC-3 [19]) | growth, % of control at 0.3 µM (MDA-MB-231 [20]) | growth, % of control at 1 µM (ACHN [21]) | further results |
| --- | --- | --- | --- | --- | --- | --- | --- | --- | --- | --- | --- | --- | --- | --- | --- | --- | --- | --- | --- | --- | --- |
| CCCCCCCCCCCCCCCCCC(=O)N(C)CC[N+](C)(C)C | 51.6% | 800 nM | 90.2% | 140 nM | 25.4% | 39.3% | Active | 93.2% | 37% | 360 nM | 1070 nM | 49% | 77.2% | -11.6% | 420 nM | 61.4% | 10.4% | 1.1% | 84.2% | 44.6% | inhibition [4]: Active; growth, % of control at 0.3 µM (PC-3 [22]): 91.9%; growth, % of control at 3 µM (NUGC-3 [23]): 2.4%; growth, % of control at 3 µM (ACHN [24]): 23.4%; growth, % of control at 10 µM (NCI-H23 [25]): 11.1%; growth, % of control at 0.3 µM (ACHN [26]): 71.3%; growth, % of control at 0.1 µM (HCT-15 [27]): 92.9%; growth, % of control at 0.3 µM (HCT-15 [28]): 98.6%; growth, % of control at 10 µM (MDA-MB-231 [29]): 12.8%; growth, % of control at 1 µM (NCI-H23 [30]): 84.4%; GI50 (NCI-H23 [31]): 1520 nM; growth, % of control at 0.1 µM (ACHN [32]): 81.8%; growth, % of control at 10 µM (NUGC-3 [33]): -18.7%; growth, % of control at 10 µM (HCT-15 [34]): 20.5%; growth, % of control at 0.1 µM (NCI-H23 [35]): 94.3%; growth, % of control at 10 µM (ACHN [36]): -15.6%; growth, % of control at 0.1 µM (MDA-MB-231 [37]): 90.6%; growth, % of control at 0.1 µM (NUGC-3 [38]): 77.9% |
| CCCCCCCCCCCCCCCC(=O)NCC(C)(C)C[N+](C)(C)CC | 43.1% | > 10000 nM | 101% | 430 nM | 85.2% | 38.5% | Active | 103% | 46.6% | 2600 nM | 1540 nM | 90.9% | 82.7% | -11.9% | 440 nM | 99.5% | 38.1% | 4.52% | 99.8% | 87.4% | growth, % of control at 0.3 µM (PC-3 [22]): 94.2%; growth, % of control at 3 µM (NUGC-3 [23]): 13.8%; growth, % of control at 3 µM (ACHN [24]): 58.9%; growth, % of control at 10 µM (NCI-H23 [25]): 3.85%; growth, % of control at 0.3 µM (ACHN [26]): 92.4%; growth, % of control at 0.1 µM (HCT-15 [27]): 107%; growth, % of control at 0.3 µM (HCT-15 [28]): 103%; growth, % of control at 10 µM (MDA-MB-231 [29]): 18.4%; growth, % of control at 1 µM (NCI-H23 [30]): 85.6%; GI50 (NCI-H23 [31]): 1340 nM; growth, % of control at 0.1 µM (ACHN [32]): 93.7%; growth, % of control at 10 µM (NUGC-3 [33]): 1.32%; growth, % of control at 10 µM (HCT-15 [34]): 57%; growth, % of control at 0.1 µM (NCI-H23 [35]): 108%; growth, % of control at 10 µM (ACHN [36]): 34.5%; growth, % of control at 0.1 µM (MDA-MB-231 [37]): 94.4%; growth, % of control at 0.1 µM (NUGC-3 [38]): 91.8% |
